{
  "source": "patent US8287923B2",
  "about": "“Compositions and methods for treating immune disorders” (priority 2005, dated 2012)",
  "tested_on": "NHEK",
  "assay": "Affymetrix gene array analysis, inflammatory gene expression",
  "format": "cell-based, human",
  "conditions": "100 μM, vs time 0",
  "procedure": "The gene array experiment was performed at the Core Facility of Genomics of the Medical College of Georgia, according to the instructions of the manufacturer (Affymetrix, Santa Clara, Calif.). Briefly, NHEK and OSC2 cells treated with 100 μM EGCG for different time period were extracted for total RNA, the RNA was processed for probes and hybridized with a cDNA microarray (HuG133A, Affymetrix) which represents 22,283 human series. DNA chips were read with a Hewlett-Packard GeneArray Scanner at a resolution of […] and were analyzed with the GeneSpring software (Silicon Genetics, Redwood City, Calif.). Details of this analysis will be published elsewhere (Hsu et al., manuscript in preparation).",
  "data": [
    {"smiles": "O=C(O[C@@H]1Cc2c(O)cc(O)cc2O[C@@H]1c1cc(O)c(O)c(O)c1)c1cc(O)c(O)c(O)c1", "note": "[EGCG, (−)-epigallocatechin-3-gallate]", "values": [
      {"measurement": "BMP2 (205290_s_at) expression", "setting": "0.5 h", "value": 0.32, "unit": "fold"},
      {"measurement": "IFNGR1 (202727_s_at) expression", "setting": "0.5 h", "value": 0.79, "unit": "fold"},
      {"measurement": "IL1A (210118_s_at) expression", "setting": "0.5 h", "value": 0.66, "unit": "fold"},
      {"measurement": "IL1B (39402_at) expression", "setting": "0.5 h", "value": 0.29, "unit": "fold"},
      {"measurement": "IL1B (205067_at) expression", "setting": "0.5 h", "value": 0.29, "unit": "fold"},
      {"measurement": "IL6R (205945_at) expression", "setting": "0.5 h", "value": 0.48, "unit": "fold"},
      {"measurement": "IL6ST (21100_s_at) expression", "setting": "0.5 h", "value": 0.34, "unit": "fold"},
      {"measurement": "IL8 (202859_x_at) expression", "setting": "0.5 h", "value": 6.02, "unit": "fold"},
      {"measurement": "IL10RB (209575_at) expression", "setting": "0.5 h", "value": 0.43, "unit": "fold"},
      {"measurement": "IL13RA2 (206172_at) expression", "setting": "0.5 h", "value": 0.33, "unit": "fold"},
      {"measurement": "IL18 (206295_at) expression", "setting": "0.5 h", "value": 0.33, "unit": "fold"},
      {"measurement": "TNFSF15 (221085_at) expression", "setting": "0.5 h", "value": 0.52, "unit": "fold"},
      {"measurement": "p38 (21156_x_at) expression", "setting": "0.5 h", "value": 2.32, "unit": "fold"},
      {"measurement": "p38 (202530_at) expression", "setting": "0.5 h", "value": 2.51, "unit": "fold"},
      {"measurement": "BMP2 (205290_s_at) expression", "setting": "2 h", "value": 0.96, "unit": "fold"},
      {"measurement": "IFNGR1 (202727_s_at) expression", "setting": "2 h", "value": 0.91, "unit": "fold"},
      {"measurement": "IL1A (210118_s_at) expression", "setting": "2 h", "value": 0.42, "unit": "fold"},
      {"measurement": "IL1B (39402_at) expression", "setting": "2 h", "value": 0.48, "unit": "fold"},
      {"measurement": "IL1B (205067_at) expression", "setting": "2 h", "value": 0.58, "unit": "fold"},
      {"measurement": "IL6R (205945_at) expression", "setting": "2 h", "value": 0.69, "unit": "fold"},
      {"measurement": "IL6ST (21100_s_at) expression", "setting": "2 h", "value": 0.28, "unit": "fold"},
      {"measurement": "IL8 (202859_x_at) expression", "setting": "2 h", "value": 9.55, "unit": "fold"},
      {"measurement": "IL10RB (209575_at) expression", "setting": "2 h", "value": 0.63, "unit": "fold"},
      {"measurement": "IL13RA2 (206172_at) expression", "setting": "2 h", "value": 0.74, "unit": "fold"},
      {"measurement": "IL18 (206295_at) expression", "setting": "2 h", "value": 0.65, "unit": "fold"},
      {"measurement": "TNFSF15 (221085_at) expression", "setting": "2 h", "value": 1.56, "unit": "fold"},
      {"measurement": "p38 (21156_x_at) expression", "setting": "2 h", "value": 1.46, "unit": "fold"},
      {"measurement": "p38 (202530_at) expression", "setting": "2 h", "value": 1.09, "unit": "fold"},
      {"measurement": "BMP2 (205290_s_at) expression", "setting": "6 h", "value": 0.72, "unit": "fold"},
      {"measurement": "IFNGR1 (202727_s_at) expression", "setting": "6 h", "value": 0.45, "unit": "fold"},
      {"measurement": "IL1A (210118_s_at) expression", "setting": "6 h", "value": 0.54, "unit": "fold"},
      {"measurement": "IL1B (39402_at) expression", "setting": "6 h", "value": 0.40, "unit": "fold"},
      {"measurement": "IL1B (205067_at) expression", "setting": "6 h", "value": 0.49, "unit": "fold"},
      {"measurement": "IL6R (205945_at) expression", "setting": "6 h", "value": 0.31, "unit": "fold"},
      {"measurement": "IL6ST (21100_s_at) expression", "setting": "6 h", "value": 0.99, "unit": "fold"},
      {"measurement": "IL8 (202859_x_at) expression", "setting": "6 h", "value": 9.99, "unit": "fold"},
      {"measurement": "IL10RB (209575_at) expression", "setting": "6 h", "value": 0.76, "unit": "fold"},
      {"measurement": "IL13RA2 (206172_at) expression", "setting": "6 h", "value": 0.81, "unit": "fold"},
      {"measurement": "IL18 (206295_at) expression", "setting": "6 h", "value": 0.70, "unit": "fold"},
      {"measurement": "TNFSF15 (221085_at) expression", "setting": "6 h", "value": 0.67, "unit": "fold"},
      {"measurement": "p38 (21156_x_at) expression", "setting": "6 h", "value": 1.62, "unit": "fold"},
      {"measurement": "p38 (202530_at) expression", "setting": "6 h", "value": 0.63, "unit": "fold"},
      {"measurement": "BMP2 (205290_s_at) expression", "setting": "24 h", "value": 0.44, "unit": "fold"},
      {"measurement": "IFNGR1 (202727_s_at) expression", "setting": "24 h", "value": 0.92, "unit": "fold"},
      {"measurement": "IL1A (210118_s_at) expression", "setting": "24 h", "value": 0.27, "unit": "fold"},
      {"measurement": "IL1B (39402_at) expression", "setting": "24 h", "value": 0.27, "unit": "fold"},
      {"measurement": "IL1B (205067_at) expression", "setting": "24 h", "value": 0.26, "unit": "fold"},
      {"measurement": "IL6R (205945_at) expression", "setting": "24 h", "value": 0.69, "unit": "fold"},
      {"measurement": "IL6ST (21100_s_at) expression", "setting": "24 h", "value": 0.61, "unit": "fold"},
      {"measurement": "IL8 (202859_x_at) expression", "setting": "24 h", "value": 9.93, "unit": "fold"},
      {"measurement": "IL10RB (209575_at) expression", "setting": "24 h", "value": 0.38, "unit": "fold"},
      {"measurement": "IL13RA2 (206172_at) expression", "setting": "24 h", "value": 0.55, "unit": "fold"},
      {"measurement": "IL18 (206295_at) expression", "setting": "24 h", "value": 0.65, "unit": "fold"},
      {"measurement": "TNFSF15 (221085_at) expression", "setting": "24 h", "value": 0.63, "unit": "fold"},
      {"measurement": "p38 (21156_x_at) expression", "setting": "24 h", "value": 2.51, "unit": "fold"},
      {"measurement": "p38 (202530_at) expression", "setting": "24 h", "value": 1.17, "unit": "fold"}
    ]}
  ]
}
